≈ marks a conversion by molar mass, not a printed value. Entries after “also recorded” stand apart in the source; their conditions may differ. Read-outs that look alike come from different tables or passages of the source.
Key:
[1] = system: Staphylococcus aureus No. 6; assay: Susceptibility (MIC), Staphylococcus aureus No. 6 (Table 3); type: cell-based
Method: (§1) 1.56 μg/ml: The value was determined by the above-identified method, where Muller-Hinton agar (Difco) as the medium was employed. Method 1.
(§2) The same procedures as in Experiment 3. were applied to the following strains. The following MIC values were also determined according to the same method as in Experiment 3.
(§3) The values with *^1 or *^2 were determined by the method 1 or 2
(§4) disclosed in Experiment 3, respectively.

[2] = clinical use; cited from earlier work
[3] = system: Staphylococcus aureus No. 1021; assay: Susceptibility (MIC), Staphylococcus aureus No. 1021 (Table 3); type: cell-based
Method: as §1, §2, §3, §4

[4] = system: Staphylococcus aureus No. 1037; assay: Susceptibility (MIC) of Staphylococcus aureus No. 1037; type: cell-based
Method: (2)Susceptibility of the test miocroorganisms (MIC value):
as §1

[5] = set-up: species or system healthy and adult men (volunteers); settings: human, in vivo, po
Method: 250 mg Capsules of Keflex® (Shionogi & Co., (LTD-Lilly) as CEX and 250 mg capsules of Kefral® (Shionogi & Co., LTD-Lilly) as CCL were employed.
The subjects, 12 healthy and adult men aged 21 to 39 years with 1.58 to 1.83 m^2 in the body surface area.
To each subject after fasting, who had no meal after supper of the previous day, were given orally the capsules with 100 ml of warm water, and the fasting was continued for 2 hours, except giving them a prefixed amount of water. CEX and CCL were given to the 12 subjects in a cross-over method, and any drugs other than CEX or CCL were not applied for one week.
The blood was collected 8 times, just before the administration, after 0.5, 0.75, 1, 1.5, 2, 3 and 6 hours. The plasma was centrifugally separated under cooling immediately after each collection, rapidly frozen and then preserved at -20° C. until the time of measurement.
The measurement were made within a week after the collection. After the frozen samples were allowed to melt at 4° C., a series of ten-fold dilution was prepared with 0.1M of phosphate buffer (pH 6.0), on which the blood level was measured by a band culture method using Micrococcus luteus ATCC 9341 as standard. Antibiotic Medium No. 8 (Difco; hereinafter referred to as ABM 8) was employed as a medium.

Escherichia coli ES-69 = assay: Susceptibility (MIC), Escherichia coli ES-69 (Table 3); type: cell-based
Method: as §1, §2, §3, §4

Escherichia coli ES-68 = assay: Susceptibility (MIC), Escherichia coli ES-68 (Table 3); type: cell-based
Method: as §1, §2, §3, §4

[6] = system: Escherichia coli NIH JC-2; assay: Minimum inhibitory concentration, Escherichia coli NIH JC-2 (Table 1); type: cell-based; settings: NIHJC2, dilution method, Chemotherapy 29(1), 76-79 (1981)
Method: (§5) Minimum Inhibitory Concentrations (MICs) were assayed according to the
(§6) dilution method disclosed in Chemotherapy 29(1), 76-79 (1981).

[7] = relative to CEX; cited from earlier work
Escherichia coli ES-80 = assay: Susceptibility (MIC), Escherichia coli ES-80 (Table 3); type: cell-based
Method: as §1, §2, §3, §4

Escherichia coli No. 29 = assay: Minimum inhibitory concentration, Escherichia coli No. 29 (Table 1); type: cell-based; settings: dilution method, Chemotherapy 29(1), 76-79 (1981)
Method: as §5, §6

[8] = system: Escherichia coli NIH JC2 or Escherichia coli No. 29; assay: Time and concentration required for 99% sterilization, both strains together (Experiment 2); type: cell-based; settings: in words
Method: Additionally, the bactericidal effects of CCL were compared with those of CEX through the following in vitro tests (details of the tests are described afterwards). The concentrations of CCL or CEX and the time which are needed for diminishing 99% of the inoculum size were measured (FIG. 2, Table 2).
Heart infusion broth (Nissui Pharmaceutical Co.)
The test microorganisms at the logarithmic growth phase (about 10^6 CFU/ml) were spread into the aforementioned broth placed in tubes, to which CCL or CEX was applied at prefixed serial concentrations. Changing in the number of viable microorganisms was monitored in order to measure the time required for 99% sterilization of the inoculum size in each tube.

SMILES	MIC ([1]; NO.6, 10^5 CFU/ml, Method 2)	MIC ([1]; NO.6, 10^6 CFU/ml, Method 1)	clinical effectiveness [2]	MIC ([3]; NO.1021, 10^5 CFU/ml, Method 2)	MIC ([3]; NO.1021, 10^6 CFU/ml, Method 1)	MIC ([4]; NO.1037, Method 1, Muller-Hinton agar)	MIC ([4]; NO.1037, Method 2, ABM 3 broth, 18 to 20 hours after inoculation (10^5 CFU/ml))	half-life compared with CEX [5]	MIC (Escherichia coli ES-69; 10^5 CFU/ml, Method 2)	MIC (Escherichia coli ES-69; Escherichia coli, ES69, 10^6 CFU/ml, Method 1, read-out: MIC)	MIC (Escherichia coli ES-68; ES68, 10^5 CFU/ml, Method 2)	MIC (Escherichia coli ES-68; ES68, 10^6 CFU/ml, Method 1)	MIC [6]	antimicrobial spectrum compared with CEX [7]	bactericidal action compared with CEX [7]	MIC (Escherichia coli ES-80; ES80, 10^5 CFU/ml, Method 2)	MIC (Escherichia coli ES-80; ES80, 10^6 CFU/ml, Method 1)	MIC (Escherichia coli No. 29)	time required for 99% sterilization compared with CEX ([8]; relative to CEX, monohydrate)	concentration needed for diminishing 99% of the inoculum size ([8]; multiples of MIC)
N[C@@H](C(=O)N[C@@H]1C(=O)N2C(C(=O)O)=C(Cl)CS[C@H]12)c1ccccc1 [CCL, 3-chloro-7-D-(2-phenylglycinamido)-3-cephem-4-carboxylic acid monohydrate]	6.25 µg/mL	3.13 µg/mL	highly effective in clinical use	3.13 µg/mL	1.56 µg/mL	1.56 µg/mL	3.13 µg/mL	half-life shorter	3.13 µg/mL	3.13 µg/mL	3.13 µg/mL	1.56 µg/mL	3.13 µg/mL	broader spectrum	more potent bactericidal action than CEX	3.13 µg/mL	1.56 µg/mL	1.56 µg/mL	within a shorter period of time than CEX; also recorded: much shorter at any MIC of 1/2 to about 64 than for CEX	–
CC1=C(C(=O)O)N2C(=O)[C@@H](NC(=O)[C@H](N)c3ccccc3)[C@H]2SC1 [CEX]	–	–	–	–	–	–	–	–	–	–	–	–	6.25 µg/mL (≈ 18 µM)	–	–	–	–	3.13 µg/mL (≈ 9.01 µM)	–	at least one MIC; also recorded: one or more MICs

From patent publication US4713247A, “Long-acting formulation of cefaclor” (priority 1983, dated 1987)
